According to patent EP4745135A1 (Gluetacs Therapeutics (Shanghai) Co., Ltd., priority 2023, dated 2025):

Experiments:
[1] = molecular target: T1, human Cereblon WT GST-tagged protein (Homo sapiens, UniProt Q96SW2); experiment: CRBN-binding affinity, HTRF (CEREBLON BINDING kit); settings: for inhibition at 0.5 µM: read-out: Inhibition Rate at 0.5 µM (%); for inhibition at 2 µM: read-out: Inhibition Rate at 2 µM (%)
T1 construct: purchased CISBIO 64BDCRBNPEH

[2] = molecular target: T2, CK1α (Homo sapiens, UniProt P48729+Q96SW2); experiment: Western blot, degradation of substrate protein in hPBMCs; format: cell-based
T2 construct: effects of the compounds of the present disclosure on the expression of target proteins in cells; endogenous in cells; host or cells: human PBMCs (Milecell Biotechnologies)

[3] = molecular target: T3, IKZF1 (Homo sapiens, UniProt Q13422+Q96SW2); experiment: as above; format: cell-based
T3 construct: effects of the compounds of the present disclosure on the expression of target proteins in cells; endogenous in cells; host or cells: human PBMCs (Milecell Biotechnologies)

[4] = molecular target: T4, IKZF3 (Homo sapiens, UniProt Q96SW2+Q9UKT9); experiment: as above; format: cell-based
T4 construct: effects of the compounds of the present disclosure on the expression of target proteins in cells; endogenous in cells; host or cells: human PBMCs (Milecell Biotechnologies)

[5] = molecular target: T5, IKZF2 (Homo sapiens, UniProt Q96SW2+Q9UKS7); experiment: as above; format: cell-based
T5 construct: effects of the compounds of the present disclosure on the expression of target proteins in cells; endogenous in cells; host or cells: human PBMCs (Milecell Biotechnologies)

[6] = molecular target: T6, WEE1 (Homo sapiens, UniProt P30291+Q96SW2); experiment: as above; format: cell-based
T6 construct: effects of the compounds of the present disclosure on the expression of target proteins in cells; endogenous in cells; host or cells: human PBMCs (Milecell Biotechnologies)

[7] = tested on: GSPT1; experiment: as above; format: cell-based, Human
[8] = Western blot, 24 hours of compound treatment, compounds tested at 50 nM and 500 nM (concentration for the table not stated)
[9] = 24 hours treatment, compounds at 50 nM and 500 nM (concentration behind the class not stated)

T2 sequence (P48729 whole entry): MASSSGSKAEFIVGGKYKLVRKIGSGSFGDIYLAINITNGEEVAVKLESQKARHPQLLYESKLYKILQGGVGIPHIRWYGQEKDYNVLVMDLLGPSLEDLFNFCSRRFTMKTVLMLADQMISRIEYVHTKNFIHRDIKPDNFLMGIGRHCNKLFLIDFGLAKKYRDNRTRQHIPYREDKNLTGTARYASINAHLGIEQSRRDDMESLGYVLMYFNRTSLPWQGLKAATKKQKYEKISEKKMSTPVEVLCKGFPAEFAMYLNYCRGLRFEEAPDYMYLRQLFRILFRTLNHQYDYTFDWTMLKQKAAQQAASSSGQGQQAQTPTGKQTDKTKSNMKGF
T2 sequence (Q96SW2 whole entry): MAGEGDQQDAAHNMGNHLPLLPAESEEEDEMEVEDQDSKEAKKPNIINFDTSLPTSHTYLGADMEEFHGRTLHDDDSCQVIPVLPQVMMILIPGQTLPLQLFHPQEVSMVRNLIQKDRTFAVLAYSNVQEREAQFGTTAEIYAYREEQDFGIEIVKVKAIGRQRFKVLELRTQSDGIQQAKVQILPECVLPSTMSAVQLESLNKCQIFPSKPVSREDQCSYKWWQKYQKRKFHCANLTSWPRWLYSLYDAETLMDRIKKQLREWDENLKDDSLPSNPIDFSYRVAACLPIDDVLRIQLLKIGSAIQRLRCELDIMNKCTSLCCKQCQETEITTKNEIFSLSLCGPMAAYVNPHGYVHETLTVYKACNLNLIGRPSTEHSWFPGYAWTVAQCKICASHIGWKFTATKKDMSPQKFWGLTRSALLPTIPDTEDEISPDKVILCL
T2 sequence (Q16531 whole entry partner): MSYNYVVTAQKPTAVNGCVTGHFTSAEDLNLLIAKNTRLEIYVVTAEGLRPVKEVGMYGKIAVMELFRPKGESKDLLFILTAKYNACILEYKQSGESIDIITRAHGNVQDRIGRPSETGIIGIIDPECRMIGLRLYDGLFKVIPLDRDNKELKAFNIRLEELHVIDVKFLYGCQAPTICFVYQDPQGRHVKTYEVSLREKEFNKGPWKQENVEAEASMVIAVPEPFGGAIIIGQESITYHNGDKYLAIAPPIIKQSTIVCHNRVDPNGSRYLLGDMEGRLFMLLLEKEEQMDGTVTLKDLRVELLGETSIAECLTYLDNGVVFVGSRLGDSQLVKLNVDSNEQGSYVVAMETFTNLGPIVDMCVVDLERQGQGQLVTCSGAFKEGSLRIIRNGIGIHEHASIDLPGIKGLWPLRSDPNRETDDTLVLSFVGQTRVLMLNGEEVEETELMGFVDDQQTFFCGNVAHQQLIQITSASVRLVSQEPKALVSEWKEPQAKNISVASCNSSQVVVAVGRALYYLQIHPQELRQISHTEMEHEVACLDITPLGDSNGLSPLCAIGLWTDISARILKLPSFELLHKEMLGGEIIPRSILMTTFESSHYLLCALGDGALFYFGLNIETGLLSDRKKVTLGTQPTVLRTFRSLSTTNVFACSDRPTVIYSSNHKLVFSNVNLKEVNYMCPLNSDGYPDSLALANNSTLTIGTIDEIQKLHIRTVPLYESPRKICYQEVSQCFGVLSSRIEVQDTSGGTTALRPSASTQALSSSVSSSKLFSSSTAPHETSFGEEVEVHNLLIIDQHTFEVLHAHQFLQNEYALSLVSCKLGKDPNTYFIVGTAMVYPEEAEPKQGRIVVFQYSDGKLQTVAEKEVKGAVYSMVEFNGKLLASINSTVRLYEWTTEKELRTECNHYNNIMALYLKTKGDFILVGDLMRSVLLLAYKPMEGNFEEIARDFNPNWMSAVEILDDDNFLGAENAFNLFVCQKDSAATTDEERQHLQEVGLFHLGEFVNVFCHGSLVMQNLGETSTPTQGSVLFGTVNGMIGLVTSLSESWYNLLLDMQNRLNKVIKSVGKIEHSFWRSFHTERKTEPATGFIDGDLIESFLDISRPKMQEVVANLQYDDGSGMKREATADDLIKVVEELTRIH
T6 sequence (P30291 whole entry): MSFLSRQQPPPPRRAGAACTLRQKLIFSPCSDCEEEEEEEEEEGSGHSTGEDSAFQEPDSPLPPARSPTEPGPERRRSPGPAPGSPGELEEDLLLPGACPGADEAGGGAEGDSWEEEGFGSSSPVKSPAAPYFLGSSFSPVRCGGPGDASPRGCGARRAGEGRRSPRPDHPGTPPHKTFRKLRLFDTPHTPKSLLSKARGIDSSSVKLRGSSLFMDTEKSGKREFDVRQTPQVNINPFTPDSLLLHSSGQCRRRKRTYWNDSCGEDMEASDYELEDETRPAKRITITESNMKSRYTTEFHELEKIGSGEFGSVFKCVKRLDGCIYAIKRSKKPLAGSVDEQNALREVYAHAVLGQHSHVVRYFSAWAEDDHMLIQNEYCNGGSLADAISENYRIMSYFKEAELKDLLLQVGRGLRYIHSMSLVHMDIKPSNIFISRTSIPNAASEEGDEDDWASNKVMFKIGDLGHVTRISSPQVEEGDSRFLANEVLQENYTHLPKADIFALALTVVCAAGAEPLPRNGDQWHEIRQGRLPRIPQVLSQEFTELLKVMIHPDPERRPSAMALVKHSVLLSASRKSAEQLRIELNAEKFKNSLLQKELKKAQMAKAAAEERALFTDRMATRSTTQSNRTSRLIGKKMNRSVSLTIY
T6 sequence (Q96SW2 whole entry): as the sequence (Q96SW2 whole entry) above
T6 sequence (Q16531 whole entry partner): as the sequence (Q16531 whole entry partner) above
T3 sequence (Q13422 whole entry): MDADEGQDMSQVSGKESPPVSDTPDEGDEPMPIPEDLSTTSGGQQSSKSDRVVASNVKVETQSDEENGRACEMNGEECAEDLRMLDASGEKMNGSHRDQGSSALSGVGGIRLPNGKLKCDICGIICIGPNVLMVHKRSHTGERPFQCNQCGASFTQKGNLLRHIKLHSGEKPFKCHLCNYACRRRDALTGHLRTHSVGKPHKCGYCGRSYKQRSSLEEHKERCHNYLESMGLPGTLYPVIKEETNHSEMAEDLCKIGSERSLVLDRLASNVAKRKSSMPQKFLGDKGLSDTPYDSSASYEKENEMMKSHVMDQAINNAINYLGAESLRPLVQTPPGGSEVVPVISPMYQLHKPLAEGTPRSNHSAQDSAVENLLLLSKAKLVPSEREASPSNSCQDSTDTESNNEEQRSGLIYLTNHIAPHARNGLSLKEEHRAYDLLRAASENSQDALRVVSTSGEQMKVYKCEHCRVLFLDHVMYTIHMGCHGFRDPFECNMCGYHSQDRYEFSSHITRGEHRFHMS
T3 sequence (Q96SW2 whole entry): as the sequence (Q96SW2 whole entry) above
T3 sequence (Q16531 whole entry partner): as the sequence (Q16531 whole entry partner) above
T5 sequence (Q9UKS7 whole entry): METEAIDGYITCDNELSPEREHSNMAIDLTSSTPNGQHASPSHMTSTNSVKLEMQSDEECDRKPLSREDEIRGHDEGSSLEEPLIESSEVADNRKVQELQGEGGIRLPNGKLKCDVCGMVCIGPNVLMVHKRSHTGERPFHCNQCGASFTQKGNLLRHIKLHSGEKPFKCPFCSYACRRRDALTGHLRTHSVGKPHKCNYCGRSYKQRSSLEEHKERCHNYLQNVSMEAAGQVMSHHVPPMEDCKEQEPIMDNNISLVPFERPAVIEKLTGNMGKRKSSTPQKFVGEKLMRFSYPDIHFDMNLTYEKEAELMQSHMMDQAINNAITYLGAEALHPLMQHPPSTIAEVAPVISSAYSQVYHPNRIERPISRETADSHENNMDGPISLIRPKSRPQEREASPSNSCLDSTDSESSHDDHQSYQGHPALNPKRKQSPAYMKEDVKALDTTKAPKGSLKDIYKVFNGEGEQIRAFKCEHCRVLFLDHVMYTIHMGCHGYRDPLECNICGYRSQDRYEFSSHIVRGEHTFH
T5 sequence (Q96SW2 whole entry): as the sequence (Q96SW2 whole entry) above
T5 sequence (Q16531 whole entry partner): as the sequence (Q16531 whole entry partner) above
T4 sequence (Q9UKT9 whole entry): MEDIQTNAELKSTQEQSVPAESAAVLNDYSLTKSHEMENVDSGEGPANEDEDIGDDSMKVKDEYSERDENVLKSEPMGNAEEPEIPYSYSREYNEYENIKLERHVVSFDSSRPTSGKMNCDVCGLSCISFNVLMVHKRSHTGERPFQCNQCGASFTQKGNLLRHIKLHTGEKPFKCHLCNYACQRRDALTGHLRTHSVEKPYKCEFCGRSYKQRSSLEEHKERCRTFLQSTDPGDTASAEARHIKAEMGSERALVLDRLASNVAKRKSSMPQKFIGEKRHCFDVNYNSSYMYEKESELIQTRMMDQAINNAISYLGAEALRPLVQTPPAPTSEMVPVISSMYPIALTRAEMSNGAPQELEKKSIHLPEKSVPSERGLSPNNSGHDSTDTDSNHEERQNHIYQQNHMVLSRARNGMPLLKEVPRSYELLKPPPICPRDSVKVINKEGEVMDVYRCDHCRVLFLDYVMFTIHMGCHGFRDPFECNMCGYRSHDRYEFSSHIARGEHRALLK
T4 sequence (Q96SW2 whole entry): as the sequence (Q96SW2 whole entry) above
T4 sequence (Q16531 whole entry partner): as the sequence (Q16531 whole entry partner) above
T1 sequence (Q96SW2 whole entry): as the sequence (Q96SW2 whole entry) above

SMILES: O=C1CCC(N2Cc3c(CN4CCC(n5cnc6cc(F)ccc65)CC4)cccc3C2=S)C(=O)N1 (centres unmarked) [GT-08842, 3-(4-((4-(5-fluoro-1H-benzo[d]imidazol-1-yl)piperidin-1-yl)methyl)-1-thioxoisoindolin-2-yl)piperidine-2,6-dione]
- inhibition at 0.5 µM [1]: 40 to 53%
- inhibition at 2 µM [1]: 80 to 100%
- CK1α substrate protein remaining % [2, 8]: B (80%< substrate protein remaining %≤ 100%)
- IKZF 1 substrate protein remaining % [3, 8]: B (80%< substrate protein remaining %≤ 100%)
- IKZF3 substrate protein remaining % [4, 8]: B (80%< substrate protein remaining %≤ 100%)
- IKZF2 substrate protein remaining % [5, 8]: B (80%< substrate protein remaining %≤ 100%)
- Wee1 substrate protein remaining % [6, 8]: A (0% ≤ substrate protein remaining % ≤ 80%)
- GSPT1 substrate protein remaining % [7, 8]: B (80%< substrate protein remaining %≤ 100%)

SMILES: O=C1CCC(N2Cc3c(CN4CCN(C(c5ccc(Cl)cc5)c5ccc(Cl)cc5)CC4)cccc3C2=S)C(=O)N1 (centres unmarked) [GT-08203, 3-(4-((4-(bis(4-chlorophenyl)methyl)piperazin-1-yl)methyl)-1-thioxoisoindolin-2-yl)piperidine-2,6-dione]
- inhibition at 0.5 µM [1]: 30 to 40%
- inhibition at 2 µM [1]: 53 to 60%
- CK1α substrate protein remaining % [2, 8]: B (80%< substrate protein remaining %≤ 100%)
- IKZF 1 substrate protein remaining % [3, 8]: B (80%< substrate protein remaining %≤ 100%)
- IKZF3 substrate protein remaining % [4, 8]: A (0% ≤ substrate protein remaining % ≤ 80%)
- IKZF2 substrate protein remaining % [5, 8]: A (0% ≤ substrate protein remaining % ≤ 80%)
- Wee1 substrate protein remaining % [6, 8]: A (0% ≤ substrate protein remaining % ≤ 80%)
- GSPT1 substrate protein remaining % [7, 8]: A (0% ≤ substrate protein remaining % ≤ 80%)

SMILES: O=C1CCC(N2Cc3cc(CN4CCN(C(c5cccnc5)c5cccnc5)CC4)ccc3C2=S)C(=O)N1 (centres unmarked) [GT-07735, 3-(5-((4-(di(pyridin-3-yl)methyl)piperazin-1-yl)methyl)-1-thioxoisoindolin-2-yl)piperidine-2,6-dione]
- inhibition at 0.5 µM [1]: 53 to 60%
- inhibition at 2 µM [1]: 80 to 100%
- CK1α substrate protein remaining % [2, 8]: B (80%< substrate protein remaining %≤ 100%)
- IKZF 1 substrate protein remaining % [3, 8]: B (80%< substrate protein remaining %≤ 100%)
- IKZF3 substrate protein remaining % [4, 8]: A (0% ≤ substrate protein remaining % ≤ 80%)
- IKZF2 substrate protein remaining % [5, 8]: B (80%< substrate protein remaining %≤ 100%)
- Wee1 substrate protein remaining % [6, 8]: A (0% ≤ substrate protein remaining % ≤ 80%)
- GSPT1 substrate protein remaining % [7, 8]: A (0% ≤ substrate protein remaining % ≤ 80%)

SMILES: O=C1CCC(N2Cc3c(CN4CCN(c5cnnc(Cl)c5Cl)CC4)cccc3C2=S)C(=O)N1 (centres unmarked) [GT-08815, 3-(4-((4-(5,6-dichloropyridazin-4-yl)piperazin-1-yl)methyl)-1-thioxoisoindolin-2-yl)piperidine-2,6-dione]
- inhibition at 0.5 µM [1]: 60 to 80%
- inhibition at 2 µM [1]: 80 to 100%
- CK1α substrate protein remaining % [2, 8]: B (80%< substrate protein remaining %≤ 100%)
- IKZF 1 substrate protein remaining % [3, 8]: B (80%< substrate protein remaining %≤ 100%)
- IKZF3 substrate protein remaining % [4, 8]: B (80%< substrate protein remaining %≤ 100%)
- IKZF2 substrate protein remaining % [5, 8]: B (80%< substrate protein remaining %≤ 100%)
- Wee1 substrate protein remaining % [6, 8]: A (0% ≤ substrate protein remaining % ≤ 80%)
- GSPT1 substrate protein remaining % [7, 8]: B (80%< substrate protein remaining %≤ 100%)

SMILES: O=C1CCC(N2Cc3cc(CN4CCCN(C(c5ccccc5)c5ccccc5)CC4)ccc3C2=S)C(=O)N1 (centres unmarked) [GT-07848, 3-(5-((4-benzhydryl-1,4-diazepan-1-yl)methyl)-1-thioxoisoindolin-2-yl)piperidine-2,6-dione]
- inhibition at 0.5 µM [1]: 30 to 40%
- inhibition at 2 µM [1]: 80 to 100%
- CK1α substrate protein remaining % [2, 8]: B (80%< substrate protein remaining %≤ 100%)
- IKZF 1 substrate protein remaining % [3, 8]: B (80%< substrate protein remaining %≤ 100%)
- IKZF3 substrate protein remaining % [4, 8]: A (0% ≤ substrate protein remaining % ≤ 80%)
- IKZF2 substrate protein remaining % [5, 8]: A (0% ≤ substrate protein remaining % ≤ 80%)
- Wee1 substrate protein remaining % [6, 8]: B (80%< substrate protein remaining %≤ 100%)
- GSPT1 substrate protein remaining % [7, 8]: A (0% ≤ substrate protein remaining % ≤ 80%)

SMILES: O=C1CCC(N2Cc3c(CN4CCN(c5ncnc6sc(Br)cc56)CC4)cccc3C2=S)C(=O)N1 (centres unmarked) [GT-08918, 3-(4-((4-(6-bromothieno[2,3-d]pyrimidin-4-yl)piperazin-1-yl)methyl)-1-thioxoisoindolin-2-yl)piperidine-2,6-dione]
- inhibition at 0.5 µM [1]: 60 to 80%
- inhibition at 2 µM [1]: 80 to 100%
- CK1α substrate protein remaining % [2, 9]: B (80%< substrate protein remaining %≤ 100%)
- IKZF 1 substrate protein remaining % [3, 9]: B (80%< substrate protein remaining %≤ 100%)
- IKZF3 substrate protein remaining % [4, 9]: B (80%< substrate protein remaining %≤ 100%)
- IKZF2 substrate protein remaining % [5, 9]: B (80%< substrate protein remaining %≤ 100%)
- Wee1 substrate protein remaining % [6, 9]: A (0% ≤ substrate protein remaining % ≤ 80%)
- GSPT1 substrate protein remaining % [7, 9]: B (80%< substrate protein remaining %≤ 100%)

SMILES: O=C1CCC(N2Cc3c(CN4CCN(c5cc(F)cc(F)c5)CC4)cccc3C2=S)C(=O)N1 (centres unmarked) [GT-08632, 3-(4-((4-(3,5-difluorophenyl)piperazin-1-yl)methyl)-1-thioxoisoindolin-2-yl)piperidine-2,6-dione]
- inhibition at 0.5 µM [1]: 60 to 80%
- inhibition at 2 µM [1]: 80 to 100%
- CK1α substrate protein remaining % [2, 8]: B (80%< substrate protein remaining %≤ 100%)
- IKZF 1 substrate protein remaining % [3, 8]: B (80%< substrate protein remaining %≤ 100%)
- IKZF3 substrate protein remaining % [4, 8]: B (80%< substrate protein remaining %≤ 100%)
- IKZF2 substrate protein remaining % [5, 8]: B (80%< substrate protein remaining %≤ 100%)
- Wee1 substrate protein remaining % [6, 8]: A (0% ≤ substrate protein remaining % ≤ 80%)
- GSPT1 substrate protein remaining % [7, 8]: B (80%< substrate protein remaining %≤ 100%)

SMILES: O=C1CCC(N2Cc3cc(CN4CCN(c5cc(Cl)ccn5)CC4)ccc3C2=S)C(=O)N1 (centres unmarked) [GT-09218, 3-(5-((4-(4-chloropyridin-2-yl)piperazin-1-yl)methyl)-1-thioxoisoindolin-2-yl)piperidine-2,6-dione]
- inhibition at 0.5 µM [1]: 60 to 80%
- inhibition at 2 µM [1]: 80 to 100%
- CK1α substrate protein remaining % [2, 8]: B (80%< substrate protein remaining %≤ 100%)
- IKZF 1 substrate protein remaining % [3, 8]: B (80%< substrate protein remaining %≤ 100%)
- IKZF3 substrate protein remaining % [4, 8]: B (80%< substrate protein remaining %≤ 100%)
- IKZF2 substrate protein remaining % [5, 8]: B (80%< substrate protein remaining %≤ 100%)
- Wee1 substrate protein remaining % [6, 8]: B (80%< substrate protein remaining %≤ 100%)
- GSPT1 substrate protein remaining % [7, 8]: A (0% ≤ substrate protein remaining % ≤ 80%)

SMILES: Cc1nc(C2=CCN(Cc3cccc4c3CN(C3CCC(=O)NC3=O)C4=S)CC2)c2ccsc2n1 (centres unmarked) [GT-08959, 3-(4-((4-(2-methylthieno[2,3-d]pyrimidin-4-yl)-3,6-dihydropyridin-1(2H)-yl)methyl)-1-thioxoisoindolin-2-yl)piperidine-2,6-dione]
- inhibition at 0.5 µM [1]: 60 to 80%
- inhibition at 2 µM [1]: 80 to 100%
- CK1α substrate protein remaining % [2, 9]: B (80%< substrate protein remaining %≤ 100%)
- IKZF 1 substrate protein remaining % [3, 9]: B (80%< substrate protein remaining %≤ 100%)
- IKZF3 substrate protein remaining % [4, 9]: B (80%< substrate protein remaining %≤ 100%)
- IKZF2 substrate protein remaining % [5, 9]: B (80%< substrate protein remaining %≤ 100%)
- Wee1 substrate protein remaining % [6, 9]: A (0% ≤ substrate protein remaining % ≤ 80%)
- GSPT1 substrate protein remaining % [7, 9]: B (80%< substrate protein remaining %≤ 100%)

SMILES: O=C1CCC(N2Cc3c(CN4CCC(c5ccnc6cc(F)ccc56)CC4)cccc3C2=S)C(=O)N1 (centres unmarked) [GT-08858, 3-(4-((4-(7-fluoroquinolin-4-yl)piperidin-1-yl)methyl)-1-thioxoisoindolin-2-yl)piperidine-2,6-dione]
- inhibition at 0.5 µM [1]: 60 to 80%
- inhibition at 2 µM [1]: 80 to 100%
- CK1α substrate protein remaining % [2, 9]: B (80%< substrate protein remaining %≤ 100%)
- IKZF 1 substrate protein remaining % [3, 9]: B (80%< substrate protein remaining %≤ 100%)
- IKZF3 substrate protein remaining % [4, 9]: B (80%< substrate protein remaining %≤ 100%)
- IKZF2 substrate protein remaining % [5, 9]: B (80%< substrate protein remaining %≤ 100%)
- Wee1 substrate protein remaining % [6, 9]: A (0% ≤ substrate protein remaining % ≤ 80%)
- GSPT1 substrate protein remaining % [7, 9]: B (80%< substrate protein remaining %≤ 100%)
